The values that follow come from patent publication US12516039B2, “N-linked isoquinoline amides as LRRK2 inhibitors, pharmaceutical compositions, and uses thereof” (Merck Sharp & Dohme LLC, priority 2020, dated 2026).

T1 sequence (Q5S007 970-2527 G2019S limits assumed): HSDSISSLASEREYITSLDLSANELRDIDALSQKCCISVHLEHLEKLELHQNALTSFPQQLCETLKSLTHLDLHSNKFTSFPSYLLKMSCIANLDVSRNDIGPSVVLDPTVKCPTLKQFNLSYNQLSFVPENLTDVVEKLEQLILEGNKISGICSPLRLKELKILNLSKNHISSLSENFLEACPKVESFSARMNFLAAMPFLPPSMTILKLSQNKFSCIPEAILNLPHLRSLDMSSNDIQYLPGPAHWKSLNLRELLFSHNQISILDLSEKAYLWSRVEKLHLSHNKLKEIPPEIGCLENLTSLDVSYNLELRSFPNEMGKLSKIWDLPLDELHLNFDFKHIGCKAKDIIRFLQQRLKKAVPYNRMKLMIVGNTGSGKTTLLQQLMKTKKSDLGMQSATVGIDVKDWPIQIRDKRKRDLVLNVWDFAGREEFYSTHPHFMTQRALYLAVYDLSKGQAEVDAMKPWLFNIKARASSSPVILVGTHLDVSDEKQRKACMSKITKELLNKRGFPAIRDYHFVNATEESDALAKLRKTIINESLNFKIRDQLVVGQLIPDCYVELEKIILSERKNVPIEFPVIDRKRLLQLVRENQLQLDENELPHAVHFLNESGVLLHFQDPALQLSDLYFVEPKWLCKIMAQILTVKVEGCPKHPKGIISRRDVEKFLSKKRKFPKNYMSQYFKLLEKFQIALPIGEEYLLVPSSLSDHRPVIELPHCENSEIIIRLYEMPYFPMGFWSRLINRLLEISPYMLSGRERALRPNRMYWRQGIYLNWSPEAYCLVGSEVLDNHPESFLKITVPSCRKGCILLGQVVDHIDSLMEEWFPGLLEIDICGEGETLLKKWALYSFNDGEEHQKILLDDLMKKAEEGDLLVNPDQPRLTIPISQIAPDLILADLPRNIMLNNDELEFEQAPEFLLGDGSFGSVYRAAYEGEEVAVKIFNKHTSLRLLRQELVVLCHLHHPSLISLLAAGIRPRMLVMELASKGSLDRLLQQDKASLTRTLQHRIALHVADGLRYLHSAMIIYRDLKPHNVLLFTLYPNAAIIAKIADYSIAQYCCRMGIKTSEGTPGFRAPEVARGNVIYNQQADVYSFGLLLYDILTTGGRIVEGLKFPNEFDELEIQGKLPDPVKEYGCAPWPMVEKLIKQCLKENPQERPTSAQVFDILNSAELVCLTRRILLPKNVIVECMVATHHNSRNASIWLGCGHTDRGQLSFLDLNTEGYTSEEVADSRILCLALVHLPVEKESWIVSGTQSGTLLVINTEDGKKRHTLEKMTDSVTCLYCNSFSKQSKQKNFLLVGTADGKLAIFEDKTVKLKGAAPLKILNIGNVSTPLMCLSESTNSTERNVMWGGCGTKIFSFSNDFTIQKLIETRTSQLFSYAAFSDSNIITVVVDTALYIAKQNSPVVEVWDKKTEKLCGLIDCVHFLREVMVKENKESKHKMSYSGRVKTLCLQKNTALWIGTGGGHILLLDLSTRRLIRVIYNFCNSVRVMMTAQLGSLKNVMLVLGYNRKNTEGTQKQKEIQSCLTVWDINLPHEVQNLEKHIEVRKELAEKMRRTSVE

One test has as its target T1, GST-tagged truncated human mutant G2019S LRRK2 (Homo sapiens, UniProt Q5S007, G2019S).
T1 construct: GST-tagged truncated human mutant G2019S LRRK2; purchased Life Technologies Corporation (Carlsbad, CA)
Description: LRRK2 G2019S Km ATP LanthaScreen assay. It counts as biochemical. To be noted: 134 μM ATP (Km ATP), LRRKtide substrate, mean of several tests. The method, boiled down: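 IC50 values are means of repeat runs, fitted with a 4-parameter logistic to the 520/495 nm TR-FRET ratio from a Tb-labeled anti-phospho-LRRKtide antibody added with EDTA. Reactions ran 90 min at room temperature at Km ATP (134 μM) with fluorescein-LRRKtide, after 15-min compound preincubation with truncated GST-tagged G2019S LRRK2.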
In the case of “(1R,2R or 1S,2S)-N-[6-[4-((3R,4R or 3S,4S)-4-fluoro-3-methyl-tetrahydrofuran-3-yl)piperazin-1-yl]-7-methyl-3-isoquinolyl]-2-(1-methylpyrazol-3-yl)cyclopropanecarboxamide [Ex-10.59]”, the “LRRK2 pIC50” value was determined as 10.09.

The same test, now with this note: 134 μM ATP (Km ATP), LRRKtide substrate, mean of several tests, read-out: LRRK2 pIC50 (converted).
For the compound `C[C@H]1CN(c2cc3cc(NC(=O)C4CC45CCOCC5)ncc3cc2Cl)CCN1C1COCC1O` (single isomer, unassigned) [Ex-2.3, (R or S)-N-{7-chloro-6-[(3S or 3R)-4-(3R,4R or 3S,4S)-4-hydroxyoxolan-3-yl)-3-methylpiperazin-1-yl]isoquinolin-3-yl}-6-oxaspiro[2.5]octane-1-carboxamide], the IC50 was 17.4 nM. In the case of `CC1(N2CCN(c3cc4cc(NC(=O)C5CC56CCCOC6)ncc4cc3Cl)CC2)COCC1O` (single isomer, unassigned) [Ex-1.18, (1R,3S, or 1R,3R, or 1S,3S, or 1S,3R)-N-(7-chloro-6-(4-((3R,4R or 3S,4S)-4-hydroxy-3-methyltetrahydrofuran-3-yl)piperazin-1-yl)isoquinolin-3-yl)-5-oxaspiro[2.5]octane-1-carboxamide], the IC50 was 0.724 nM. For the compound `Cc1cc2cnc(NC(=O)C3CC34CCOC4)cc2cc1N1CCN(C2(C)COCC2O)CC1` (single isomer, unassigned) [Ex-6.2, (1R, 3S or 1S,3R, or 1R,3S, or 1S,3S)-N-(6-(4-((3R, 4R or 3S,4S)-4-hydroxy-3-methyltetrahydrofuran-3-yl)piperazin-1-yl)-7-methylisoquinolin-3-yl)-5-oxaspiro[2.4]heptane-1-carboxamide], the IC50 is 1.38 nM. Turning to `C[C@]1(O)COC[C@@]1(C)N1CCN(c2cc3cc(NC(=O)[C@@H]4CC45CCOCC5)ncc3cc2Cl)CC1` (single isomer, unassigned) [Ex-17.1, (R) or (S)-N-(7-chloro-6-((3R,4R) or (3S,4S)-4-(4-hydroxy-3,4-dimethyltetrahydrofuran-3-yl)piperazin-1-yl)isoquinolin-3-yl)-6-oxaspiro[2.5]octane-1-carboxamide], the IC50 is 0.0813 nM.

In the case of `Cc1cc2cnc(NC(=O)C3CCOC(C)(C)C3)cc2cc1N1CCN(C2(C)CCOC2)CC1` (single isomer, unassigned) [Ex-10.42, (4R or 4S)-2,2-dimethyl-N-[7-methyl-6-[4-((R or S)-3-methyltetrahydrofuran-3-yl)piperazin-1-yl]-3-isoquinolyl]tetrahydropyran-4-carboxamide], the IC50 was 0.525 nM. Still for that read-out and setting: to `Cc1cc2cnc(NC(=O)C3C(C)C3c3cnn(C)c3)cc2cc1N1CCN(C2(C)CCOC2)CC1` (single isomer, unassigned) [Ex-9.12] belongs 0.0813 nM; to `CC1(N2CCN(c3cc4cc(NC(=O)C5CCC5C#N)ncc4cc3Cl)CC2)COCC1O` (single isomer, unassigned) [Ex-10.39, (1R,2R of 1S,2S)-N-[7-chloro-6-[4-((3R,4R or 3S,4S)-4-hydroxy-3-methyl-tetrahydrofuran-3-yl)piperazin-1-yl]-3-isoquinolyl]-2-cyano-cyclobutanecarboxamide], 0.0813 nM.

As for `Cc1cc2cnc(NC(=O)C3C4CCOCC43)cc2cc1N1CCN(C2(C)CCOC2)CC1` (single isomer, unassigned) [Ex-10.48, (1S,6R,7R, 1R,6S,7R, or 1R, 6S,7S, or 1S,6S,7S)-N-(7-methyl-6-(4-((R or S)-3-methyltetrahydrofuran-3-yl)piperazin-1-yl)isoquinolin-3-yl)-3-oxabicyclo[4.1.0]heptane-7-carboxamide], the IC50 is 17.4 nM.

As to `CC1(C2CCOC2)CC1C(=O)Nc1cc2cc(N3CCN(C4(C)COCC4O)CC3)c(Cl)cc2cn1` (single isomer, unassigned) [Ex-10.86, (1R,2R or 1S,2S, or 1R,2S, or 1S,2R)-N-[7-chloro-6-[4-((3R,4R or 3S,4S)-4-hydroxy-3-methyl-tetrahydrofuran-3-yl)piperazin-1-yl]-3-isoquinolyl]-2-methyl-2-tetrahydrofuran-3-yl-cyclopropanecarboxamide], the IC50 is 0.0813 nM. For the compound `CC1(c2ccccn2)CC1C(=O)Nc1cc2cc(N3CCN(C4(C)COCC4O)CC3)c(Cl)cc2cn1` (single isomer, unassigned) [Ex-11.1, (1R,2R)(3R,4R)— or (1R,2S)(3R,4R)— or (1S,2R)(3R,4R)— or (1S,2S)(3R,4R)— or (1R,2R)(3S,4S)— or (1R,2S)(3S,4S)— or (1S,2R)(3S,4S)— or (1S,2S)(3S,4S)-N-(7-chloro-6-(4-(4-hydroxy-3-methyltetrahydrofuran-3-yl)piperazin-1-yl)isoquinolin-3-yl)-2-methyl-2-(pyridin-2-yl)cyclopropane-1-carboxamide], the IC50 was 0.0813 nM. Turning to `CC1(N2CCN(c3cc4cc(NC(=O)C5CC5)ncc4cc3Cl)CC2)COCC1O` (single isomer, unassigned) [Ex-1.2, (3R,4R or 3S,4S)-N-(7-chloro-6-(4-(4-hydroxy-3-methyltetrahydrofuran-3-yl)piperazin-1-yl)isoquinolin-3-yl)cyclopropanecarboxamide], the IC50 is 25.1 nM. As to `CC1(N2CCN(c3cc4cc(NC(=O)C5CCC56CCOCC6)ncc4cc3Cl)CC2)COCC1O` (single isomer, unassigned) [Ex-1.28, (R or S)-N-(7-chloro-6-(4-((3R,4R or 3S,4S)-4-hydroxy-3-methyltetrahydrofuran-3-yl)piperazin-1-yl)isoquinolin-3-yl)-7-oxaspiro[3.5]nonane-1-carboxamide], the IC50 is 12 nM. The same measure, in the same setting: to `CC1(C2CCOC2)CC1C(=O)Nc1cc2cc(N3CCN(C4(C)COCC4O)CC3)c(Cl)cc2cn1` (single isomer, unassigned) [Ex-10.85, (1R,2R or 1S,2S, or 1R,2S, or 1S,2R)-N-[7-chloro-6-[4-((3R,4R or 3S,4S)-4-hydroxy-3-methyl-tetrahydrofuran-3-yl)piperazin-1-yl]-3-isoquinolyl]-2-methyl-2-tetrahydrofuran-3-yl-cyclopropanecarboxamide] belongs 0.0813 nM; to `CC1(C)CC(C(=O)Nc2cc3cc(N4CCN(C5(C)COCC5O)CC4)c(Cl)cc3cn2)CO1` (single isomer, unassigned) [Ex-1.22, (R or S)-N-(7-chloro-6-(4-((3R,4R or 3S,4S)-4-hydroxy-3-methyltetrahydrofuran-3-yl)piperazin-1-yl)isoquinolin-3-yl)-5,5-dimethyltetrahydrofuran-3-carboxamide], 1.17 nM. The same measure, in the same setting: to `CC1(C)OCCC1C(=O)Nc1cc2cc(N3CCN(C4(C)COCC4O)CC3)c(Cl)cc2cn1` (single isomer, unassigned) [Ex-1.24, (R or S)-N-(7-chloro-6-(1-((3R,4R or 3S,4S)-4-hydroxy-3-methyltetrahydrofuran-3-yl)piperazin-4-yl)isoquinolin-3-yl)-2,2-dimethyltetrahydrofuran-3-carboxamide] belongs 69.2 nM; to `CC1(C)CC2(CCO1)CC2C(=O)Nc1cc2cc(N3CCN(C4(C)COCC4O)CC3)c(Cl)cc2cn1` (single isomer, unassigned) [Ex-7.3], 3.72 nM. On to `CC1(N2CCN(c3cc4cc(NC(=O)C5CC56CCCOC6)ncc4cc3Cl)CC2)COCC1O` (single isomer, unassigned) [Ex-1.13, (1R,3S, or 1R,3R, or 1S,3S, or 1S,3R)-N-(7-chloro-6-(4-((3R,4R or 3S,4S)-4-hydroxy-3-methyltetrahydrofuran-3-yl)piperazin-1-yl)isoquinolin-3-yl)-5-oxaspiro[2.5]octane-1-carboxamide], for which the IC50 was 275 nM.
